Measured values as given in patent US11844822B2, “Solid formulation and method for preventing or reducing coloration thereof” (Elobix AB, priority 2014, dated 2023).

Assay: Storage coloration test of Elobixibat, additive and their mixtures (visual observation)
Type: physicochemical
Text: 1,1-dioxo-3,3-dibutyl-5-phenyl-7-methylthio-8-(N—{(R)-1′-phenyl-1′-[N′-(carboxymethyl)carbamoyl]methyl}carbamoylmethoxy)-2,3,4,5-tetrahydro-1,5-benzothiazepine (Elobixibat) and an additive shown in Table 1 were mixed so that they have a volume ratio of 1:1 based on visual quantities, and thereby, the mixtures according to Reference Examples 3 to 9 were obtained. […] The mixture of each of Reference Examples 3 to 9, only Elobixibat as Reference Example 1, and only Macrogol (polyethylene glycol) 6000 as Reference Example 2 were independently stored in an aluminum bag as an airtight container for 2 weeks under the conditions of 60° C. and 75% relative humidity. After storage, the presence or absence of coloration of the materials of Reference Examples 1 and 2 and the mixtures according to Reference Examples 3 to 9 was visually observed.

CCCCC1(CCCC)CN(c2ccccc2)c2cc(SC)c(OCC(=O)N[C@@H](C(=O)NCC(=O)O)c3ccccc3)cc2S(=O)(=O)C1 [Reference Example 1, 1,1-dioxo-3,3-dibutyl-5-phenyl-7-methylthio-8-(N—{(R)-1′-phenyl-1′-[N′-(carboxymethyl)carbamoyl]methyl}carbamoylmethoxy)-2,3,4,5-tetrahydro-1,5-benzothiazepine]
Coloration after storage: Before storage → after storage (colour before and after 2 weeks at 60° C. and 75% relative humidity in aluminum bag): white → white | Coloration after storage (stored in aluminum bag (airtight container) for 2 weeks at 60° C. and 75% relative humidity, visually observed): Not observed
